For 9 compounds, IC50 and inhibition results are on record in patent US8846704B2, “Thiopyrimidine-based compounds and uses thereof” (YM Biosciences Austraila Pty Ltd, priority 2007, dated 2014).

Molecules are shown by their SMILES. Where only a bound is given, the exact number is not on record here.

Assay [1] has as its target T1, human JAK2 (Homo sapiens, UniProt O60674).
T1 construct: The kinase domain of human JAK2 was amplified; GST (N); made in house; host or cells: Sf9 insect cells (baculovirus)
The assay is described as follows: Alphascreen tyrosine kinase enzyme assay, JAK2 kinase domain. Type of assay: biochemical. As to conditions: read-out: JAK2 IC50_nM. Put shortly: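 JAK2 kinase domain expressed in baculovirus/Sf9 and glutathione-affinity purified. Compounds (final […]) pre-incubated 20 min with enzyme in 10 mM HEPES pH 7.5, MgCl2, NaCl, vanadate, 0.1% Tween 20.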
A general note: In Alpha technology, singlet oxygen from a donor bead excites a nearby acceptor bead.

Assay [2] has as its target T2, human JAK3 (Homo sapiens, UniProt P52333).
T2 construct: The kinase domain of human JAK3 was amplified; GST (N); made in house; host or cells: Sf9 insect cells (baculovirus)
As to the kind of experiment: Alphascreen tyrosine kinase enzyme assay, JAK3 kinase domain. Type of assay: biochemical. As to conditions: read-out: JAK3 IC50_nM. Put shortly: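 GST-affinity-purified human JAK3 kinase domain (baculovirus/Sf9) was pre-incubated 20 min with compound ([…]) in HEPES pH 7.5 buffer with MgCl2, vanadate and Tween 20. Biotinylated peptide substrate ([…]) and ATP were then added; phosphotyrosine was detected by AlphaScreen PY100 acceptor and streptavidin donor beads after 2–3 h.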

The test system of assay [3] is BaF3 wild-type cells. The assay is described as follows: Cellular screening, BaF3 wild-type cells, Alamar Blue. Conditions: Mus musculus, 40 hr, read-out: BAF3wt IC50_nM. The class given is cell-based. The method, boiled down:
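Compounds, screened from dilution plates at 20 μM, were added as 10× final stocks to cells grown in DMEM/10% FCS/10% WEHI 3B conditioned medium. Cells were seeded at 1.1× final (50,000–200,000 cells/mL) and incubated 40 hr at 37° C, 5% CO2. Viability was read at 544 nm after a further 4–6 hours with Alamar Blue.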
A general note: Alamar Blue is a resazurin reagent that responds to reducing activity.

The target of assay [4] is T3, Blk(m) (Mus musculus, UniProt P16277).
T3 construct: purchased Upstate Biotechnology (Dundee, UK), KinaseProfiler service
T3 sequence (P16277 whole entry): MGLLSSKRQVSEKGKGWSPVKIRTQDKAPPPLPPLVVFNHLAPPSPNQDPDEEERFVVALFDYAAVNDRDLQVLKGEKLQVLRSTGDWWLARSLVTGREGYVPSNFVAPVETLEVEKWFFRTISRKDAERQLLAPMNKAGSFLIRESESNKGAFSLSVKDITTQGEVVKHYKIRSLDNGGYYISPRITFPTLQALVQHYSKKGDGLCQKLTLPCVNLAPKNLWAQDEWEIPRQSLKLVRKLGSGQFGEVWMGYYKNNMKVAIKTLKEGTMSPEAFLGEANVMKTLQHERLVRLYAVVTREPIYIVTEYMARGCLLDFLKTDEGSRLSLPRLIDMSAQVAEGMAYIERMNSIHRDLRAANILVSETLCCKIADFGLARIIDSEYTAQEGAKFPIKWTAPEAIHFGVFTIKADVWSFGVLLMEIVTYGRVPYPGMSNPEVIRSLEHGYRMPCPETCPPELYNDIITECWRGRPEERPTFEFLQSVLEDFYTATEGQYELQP
The assay is described as follows: Upstate KinaseProfiler enzyme assay, Blk. Type of assay: biochemical. Conditions: 500 nM compound; read-out: Percent inhibition at 500 nM Blk(m). The method, boiled down:
(§1)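 Standard profiling-service enzyme format. Kinases were brought to ten-fold working concentration in a pH 7.0 buffer of 20 mM MOPS, 1 mM EDTA, 5% glycerol, 1 mg/ml BSA, 0.01% Brij-35 and 0.1% β-mercaptoethanol; substrate working stocks were made in deionised water.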

For assay [5], the target named is T4, Bmx(h) (Homo sapiens, UniProt P51813).
T4 construct: purchased Upstate Biotechnology (Dundee, UK), KinaseProfiler service
T4 sequence (P51813 1-675): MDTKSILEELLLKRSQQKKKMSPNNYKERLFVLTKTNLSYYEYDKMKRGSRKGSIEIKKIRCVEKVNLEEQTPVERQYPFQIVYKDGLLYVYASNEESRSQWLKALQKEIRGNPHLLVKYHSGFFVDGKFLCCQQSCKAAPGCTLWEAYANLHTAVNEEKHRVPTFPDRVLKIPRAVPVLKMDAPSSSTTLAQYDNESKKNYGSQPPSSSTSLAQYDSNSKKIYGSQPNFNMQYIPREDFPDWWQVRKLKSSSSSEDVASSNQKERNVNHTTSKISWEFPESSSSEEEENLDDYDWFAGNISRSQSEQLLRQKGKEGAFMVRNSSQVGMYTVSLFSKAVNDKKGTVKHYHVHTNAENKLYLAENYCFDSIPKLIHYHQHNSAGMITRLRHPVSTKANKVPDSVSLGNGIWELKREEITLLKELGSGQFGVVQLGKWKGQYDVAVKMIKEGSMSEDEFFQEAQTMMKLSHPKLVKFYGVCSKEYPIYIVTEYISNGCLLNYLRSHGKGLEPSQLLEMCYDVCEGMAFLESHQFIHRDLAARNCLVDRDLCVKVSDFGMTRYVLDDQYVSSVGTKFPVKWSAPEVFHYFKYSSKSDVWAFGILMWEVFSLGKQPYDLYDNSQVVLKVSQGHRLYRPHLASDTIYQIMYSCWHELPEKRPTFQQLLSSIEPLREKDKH
As to the kind of experiment: Upstate KinaseProfiler enzyme assay, Bmx. The class given is biochemical. Conditions: 500 nM compound; read-out: Percent inhibition at 500 nM Bmx(h). The method, boiled down: as §1

Assay [6] concerns the target T5, KDR(h) (Homo sapiens, UniProt P35968).
T5 construct: purchased Upstate Biotechnology (Dundee, UK), KinaseProfiler service
The assay is described as follows: Upstate KinaseProfiler enzyme assay, KDR. The class given is biochemical. As to conditions: 500 nM compound; read-out: Percent inhibition at 500 nM KDR(h). The method, boiled down: as §1

A word on the inhibition: it is the change of the read-out against control, counted positive when it falls.

T2 sequence (P52333 822-1111 limits assumed): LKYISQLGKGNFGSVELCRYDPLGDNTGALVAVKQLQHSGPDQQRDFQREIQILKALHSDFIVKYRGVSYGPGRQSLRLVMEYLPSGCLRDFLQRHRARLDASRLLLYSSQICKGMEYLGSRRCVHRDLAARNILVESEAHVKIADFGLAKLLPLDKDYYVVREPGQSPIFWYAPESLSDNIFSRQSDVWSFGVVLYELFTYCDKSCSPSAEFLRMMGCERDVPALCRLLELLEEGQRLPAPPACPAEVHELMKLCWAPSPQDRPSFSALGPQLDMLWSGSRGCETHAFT
T5 sequence (P35968 20-1356): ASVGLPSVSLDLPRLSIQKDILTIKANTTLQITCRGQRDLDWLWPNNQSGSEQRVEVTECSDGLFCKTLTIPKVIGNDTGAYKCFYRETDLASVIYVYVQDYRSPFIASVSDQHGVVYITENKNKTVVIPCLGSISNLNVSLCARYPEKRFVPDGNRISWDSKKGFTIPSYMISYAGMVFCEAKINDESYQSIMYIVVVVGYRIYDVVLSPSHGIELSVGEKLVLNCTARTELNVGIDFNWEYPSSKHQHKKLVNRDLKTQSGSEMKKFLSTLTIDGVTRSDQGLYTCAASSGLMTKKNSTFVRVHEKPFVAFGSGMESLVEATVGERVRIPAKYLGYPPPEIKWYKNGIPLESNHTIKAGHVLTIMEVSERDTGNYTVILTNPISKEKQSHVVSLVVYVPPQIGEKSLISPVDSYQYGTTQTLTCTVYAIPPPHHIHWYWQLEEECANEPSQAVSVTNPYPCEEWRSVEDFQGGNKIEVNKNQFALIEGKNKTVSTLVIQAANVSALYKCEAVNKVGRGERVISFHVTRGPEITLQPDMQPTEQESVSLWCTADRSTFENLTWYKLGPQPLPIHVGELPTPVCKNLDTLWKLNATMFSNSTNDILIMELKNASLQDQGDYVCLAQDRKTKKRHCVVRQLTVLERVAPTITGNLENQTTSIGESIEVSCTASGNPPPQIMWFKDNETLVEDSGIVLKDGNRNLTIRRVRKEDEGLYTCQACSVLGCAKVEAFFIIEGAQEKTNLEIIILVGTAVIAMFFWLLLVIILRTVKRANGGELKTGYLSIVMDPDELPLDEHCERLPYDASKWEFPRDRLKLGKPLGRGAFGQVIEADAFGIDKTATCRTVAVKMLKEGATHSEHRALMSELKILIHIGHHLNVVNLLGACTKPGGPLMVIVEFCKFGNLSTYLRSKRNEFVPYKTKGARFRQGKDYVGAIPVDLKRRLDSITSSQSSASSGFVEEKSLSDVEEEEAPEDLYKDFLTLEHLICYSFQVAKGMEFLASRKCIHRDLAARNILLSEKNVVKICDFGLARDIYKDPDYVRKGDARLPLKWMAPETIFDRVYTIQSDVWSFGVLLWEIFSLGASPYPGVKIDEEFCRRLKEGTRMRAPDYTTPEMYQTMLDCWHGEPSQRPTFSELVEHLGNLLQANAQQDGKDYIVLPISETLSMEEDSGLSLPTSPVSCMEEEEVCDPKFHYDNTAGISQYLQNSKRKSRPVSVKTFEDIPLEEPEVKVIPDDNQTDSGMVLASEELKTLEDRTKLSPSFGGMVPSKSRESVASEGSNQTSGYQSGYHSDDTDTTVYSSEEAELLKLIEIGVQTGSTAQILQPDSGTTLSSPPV
T1 sequence (O60674 849-1124 limits assumed): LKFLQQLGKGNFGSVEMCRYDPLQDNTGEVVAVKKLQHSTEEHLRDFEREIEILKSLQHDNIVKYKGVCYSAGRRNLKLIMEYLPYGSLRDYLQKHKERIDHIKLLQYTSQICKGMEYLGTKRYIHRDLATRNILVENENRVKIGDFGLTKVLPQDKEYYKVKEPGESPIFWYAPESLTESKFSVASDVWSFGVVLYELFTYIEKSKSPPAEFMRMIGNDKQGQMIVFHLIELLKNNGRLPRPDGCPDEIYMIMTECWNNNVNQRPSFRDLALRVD

For the compound `C=CC(=O)Nc1ccc(Sc2ccnc(Nc3cccc(OC)c3)n2)cc1` [Compound 105, N-(4-(2-(3-methoxyphenylao)pyrimidin-4-ylthio)phenyl)acrylamide], the IC50 in assay [1] was > 1000 nM; in assay [2], < 100 nM; in assay [3], > 20000 nM. For the same compound, the inhibition at 0.5 µM in assay [4], in assay [5] and in assay [6] was 100% throughout.
For the compound `CC#CC(=O)Nc1ccc(Sc2nc(Nc3ccc(N4CCOCC4)cc3)ncc2C)cc1` [Compound 125, N-(4-(5-methyl-2-(4-morpholinophenylao)pyrimidin-4-ylthio)phenyl)but-2-ynamide], the figures for the IC50 in assay [1], in assay [2] and in assay [3] were > 1000 nM, < 100 nM and > 20000 nM, respectively. Besides, the inhibition at 0.5 µM in assay [4], in assay [5] and in assay [6] was 100% each time.
`C=CC(=O)Nc1ccc(Sc2ccnc(Nc3ccc(C#N)cc3)n2)cc1` [Compound 131, N-(4-(2-(4-cyanophenylao)pyrimidin-4-ylthio)phenyl)acrylamide]: the IC50 in assay [1] was > 1000 nM; in assay [2], < 100 nM; in assay [3], < 5000 nM. The inhibition at 0.5 µM in assay [4], in assay [5] and in assay [6] was 100% throughout.
In the case of `C=CC(=O)Nc1ccc(Sc2ccnc(Nc3ccc(S(N)(=O)=O)cc3)n2)cc1` [Compound 352, N-(4-(2-(4-sulfamoylphenylao)pyrimidin-4-ylthio)phenyl)acrylamide], the IC50 in assay [1] was > 1000 nM; in assay [2], < 100 nM; in assay [3] it was > 20000 nM. In addition, the inhibition at 0.5 µM in assay [4], in assay [5] and in assay [6] was 100% each time.
On to `C=CC(=O)Nc1ccc(Sc2ccnc(Nc3ccc(F)c(C#N)c3)n2)cc1` [Compound 354, N-(4-(2-(3-cyano-4-fluorophenylao)pyrimidin-4-ylthio)phenyl)acrylamide], for which the IC50 in assay [1] was > 1000 nM; in assay [2], < 100 nM; in assay [3], < 20000 nM. Besides, the inhibition at 0.5 µM in assay [4], in assay [5] and in assay [6] was 100% in each case.
Consider `C=CC(=O)Nc1cc(C)c(Sc2nc(Nc3ccc(N4CCOCC4)cc3)ncc2C)c(C)c1` [Compound 164, N-(3,5-dimethyl-4-(5-methyl-2-(4-morpholinophenylao)pyrimidin-4-ylthio)phenyl)acrylamide], for which the IC50 in assay [1] was > 1000 nM; in assay [2] it was < 100 nM; in assay [3] it was > 20000 nM. The inhibition at 0.5 µM is 62% in assay [4], 87% in assay [5] and 83% in assay [6].
With `C=CC(=O)Nc1ccc(Sc2ccnc(Nc3ccc(OC)c(O)c3)n2)cc1` [Compound 97], the results for the IC50 in assay [1], in assay [2] and in assay [3] were > 1000 nM, < 100 nM and < 20000 nM, respectively. The inhibition at 0.5 µM in assay [4], in assay [5] and in assay [6] was 100% throughout.
As for `C=CC(=O)Nc1ccc(Sc2ccnc(Nc3ccc(N4CCOCC4)cc3)n2)c(Cl)c1C` [Compound 161, N-(3-chloro-2-methyl-4-(2-(4-morpholinophenylao)pyrimidin-4-ylthio)phenyl)acrylamide], the IC50 in assay [1] was > 1000 nM; in assay [2] it was < 100 nM; in assay [3], > 20000 nM. Besides, the inhibition at 0.5 µM in assay [4], in assay [5] and in assay [6] was 100% each time.
For `C=CC(=O)Nc1ccc(Sc2ccnc(Nc3ccc(Cl)cc3)n2)cc1` [Compound 353, N-(4-(2-(4-chlorophenylao)pyrimidin-4-ylthio)phenyl)acrylamide], the IC50 is > 1000 nM in assay [1], < 100 nM in assay [2] and > 20000 nM in assay [3]. In addition, the inhibition at 0.5 µM in assay [4], in assay [5] and in assay [6] was 100% each time.
